We go through 27 molecules from the NIST ThermoML archive (doi:10.1016/j.fluid.2014.11.020).

Numbers after ± are expanded uncertainties.

The data set can be described thus: activity coefficient (dimensionless); of the first substance listed, at infinite dilution; xn = mol fraction of the nth substance listed. Conditions: Liquid, Chromatography, x1 = 0.

As to `CC1CCCCC1` [methylcyclohexane] + CCCOC[n+]1ccn(C)c1.O=S(=O)([N-]S(=O)(=O)C(F)(F)F)C(F)(F)F, the activity coefficient amounted to 13 ± 0.89 (323.15 K), 12.9 ± 0.88 (333.15 K) and 13 ± 0.89 (343.15 K).
As for `CC(C)O` [propan-2-ol] + CCCCCCCCn1cc[n+](COCCCOC[n+]2ccn(CCCCCCCC)c2C)c1C.O=S(=O)([N-]S(=O)(=O)C(F)(F)F)C(F)(F)F.O=S(=O)([N-]S(=O)(=O)C(F)(F)F)C(F)(F)F, the activity coefficient (323.15 K) turned out to be 0.68 ± 0.05, the activity coefficient (333.15 K) came to 0.61 ± 0.04 and the activity coefficient (343.15 K) was 0.56 ± 0.04.
For the molecule `C1COCCO1` [1,4-dioxane] + CCCOC[n+]1ccn(Cc2ccccc2)c1.N#C[N-]C#N, the activity coefficient is, setting by setting: (323.15 K) 0.84 ± 0.05; (333.15 K) 0.88 ± 0.06; (343.15 K) 0.89 ± 0.06.
Take `CCO` [ethanol] + CN(C)c1cc[n+](COCCCOC[n+]2ccc(N(C)C)cc2)cc1.O=S(=O)([N-]S(=O)(=O)C(F)(F)F)C(F)(F)F.O=S(=O)([N-]S(=O)(=O)C(F)(F)F)C(F)(F)F: the activity coefficient runs as follows: (323.15 K) 1.21 ± 0.08; (333.15 K) 1.11 ± 0.07; (343.15 K) 1.02 ± 0.06.
For `CCCCO` [butan-1-ol] + CCCOC[n+]1ccn(C)c1.O=S(=O)([N-]S(=O)(=O)C(F)(F)F)C(F)(F)F, the activity coefficient stood at 2.37 ± 0.16 (323.15 K), 2.09 ± 0.14 (333.15 K) and 1.89 ± 0.13 (343.15 K).
On the same counts, the results for `CCCCCCCCC` [nonane] + CCCOC[n+]1ccn(C)c1.O=S(=O)([N-]S(=O)(=O)C(F)(F)F)C(F)(F)F are 52.4 ± 3.6, 45.9 ± 3.1 and 40.5 ± 2.8.
For `CC1CCCCC1` [methylcyclohexane] + CCCCCCCCn1cc[n+](COCCCOC[n+]2ccn(CCCCCCCC)c2C)c1C.N#C[N-]C#N.N#C[N-]C#N, in that order: 5.75 ± 0.39, 5.07 ± 0.35 and 4.82 ± 0.33.
For `CC1CCCCC1` [methylcyclohexane] + CCCOC[n+]1ccn(C)c1.F[B-](F)(F)F, in that order: 76 ± 5.2, 70.4 ± 4.8 and 59.7 ± 4.1.
As to `CCC(=O)CC` [pentan-3-one] + CCCCCCCCn1cc[n+](COCCC)c1C.O=S(=O)([N-]S(=O)(=O)C(F)(F)F)C(F)(F)F, the activity coefficient came out at 0.45 ± 0.04 (323.15 K), 0.45 ± 0.04 (333.15 K) and 0.47 ± 0.04 (343.15 K).
Regarding `CCC(C)=O` [butanone] + CCCCCCCCn1cc[n+](COCCCOC[n+]2ccn(CCCCCCCC)c2C)c1C.O=S(=O)([N-]S(=O)(=O)C(F)(F)F)C(F)(F)F.O=S(=O)([N-]S(=O)(=O)C(F)(F)F)C(F)(F)F, the activity coefficient by setting is: (323.15 K) 0.21 ± 0.03; (333.15 K) 0.19 ± 0.03; (343.15 K) 0.18 ± 0.03.
Take `CCC[N+](=O)[O-]` [1-nitropropane] + CCCOC[n+]1ccn(Cc2ccccc2)c1.O=S(=O)([N-]S(=O)(=O)C(F)(F)F)C(F)(F)F: the activity coefficient was 0.53 ± 0.04 (323.15 K), 0.46 ± 0.04 (333.15 K) and 0.47 ± 0.04 (343.15 K).
With `Cc1cccc(C)c1` [1,3-dimethylbenzene] + CCCCCCCCn1cc[n+](COCCCOC[n+]2ccn(CCCCCCCC)c2C)c1C.N#C[N-]C#N.N#C[N-]C#N, the activity coefficient runs as follows: (323.15 K) 1.36 ± 0.09; (333.15 K) 1.37 ± 0.09; (343.15 K) 1.39 ± 0.09.
In the case of `C1CCCCCC1` [cycloheptane] + CCCCCCCCn1cc[n+](COCCCOC[n+]2ccn(CCCCCCCC)c2C)c1C.N#C[N-]C#N.N#C[N-]C#N, the activity coefficient was determined as 10.1 ± 0.69 (323.15 K), 13.5 ± 0.92 (333.15 K) and 18.3 ± 1.2 (343.15 K).
In the case of `CCC(=O)CC` [pentan-3-one] + CCCOC[n+]1ccn(Cc2ccccc2)c1.O=S(=O)([N-]S(=O)(=O)C(F)(F)F)C(F)(F)F, the activity coefficient is, setting by setting: (323.15 K) 0.43 ± 0.04; (333.15 K) 0.43 ± 0.04; (343.15 K) 0.44 ± 0.04.
Take `CC1CCCCC1` [methylcyclohexane] + CCCCCCCCn1cc[n+](COCCC)c1C.O=S(=O)([N-]S(=O)(=O)C(F)(F)F)C(F)(F)F: the activity coefficient (323.15 K) was 3.09 ± 0.21, the activity coefficient (333.15 K) came to 2.91 ± 0.2 and the activity coefficient (343.15 K) amounted to 2.8 ± 0.19.
On the same counts, the results for `ClCCl` [dichloromethane] + CCCOC[n+]1ccn(C)c1.O=S(=O)([N-]S(=O)(=O)C(F)(F)F)C(F)(F)F are 0.71 ± 0.05, 0.79 ± 0.05 and 0.75 ± 0.05.
Regarding `CCCCCCCCCC` [decane] + CCCOC[n+]1ccc(N(C)C)cc1.O=S(=O)([N-]S(=O)(=O)C(F)(F)F)C(F)(F)F, the activity coefficient reads like this: (323.15 K) 41.1 ± 2.8; (333.15 K) 38.5 ± 2.6; (343.15 K) 34.5 ± 2.4.
As for `C=CCCCC` [hex-1-ene] + CCCCCCCCn1cc[n+](COCCCOC[n+]2ccn(CCCCCCCC)c2C)c1C.O=S(=O)([N-]S(=O)(=O)C(F)(F)F)C(F)(F)F.O=S(=O)([N-]S(=O)(=O)C(F)(F)F)C(F)(F)F, the activity coefficient runs as follows: (323.15 K) 2.33 ± 0.16; (333.15 K) 2.51 ± 0.17; (343.15 K) 2.35 ± 0.16.
As for `CCC(=O)CC` [pentan-3-one] + CCCOC[n+]1ccn(C)c1.N#C[N-]C#N, the activity coefficient (323.15 K) came out at 2.14 ± 0.15, the activity coefficient (333.15 K) stood at 2.19 ± 0.15 and the activity coefficient (343.15 K) came out at 2.29 ± 0.16.
For `C[N+](=O)[O-]` [nitromethane] + CCCCCCCCn1cc[n+](COCCCOC[n+]2ccn(CCCCCCCC)c2C)c1C.N#C[N-]C#N.N#C[N-]C#N, the activity coefficient by setting is: (323.15 K) 0.44 ± 0.04; (333.15 K) 0.43 ± 0.04; (343.15 K) 0.42 ± 0.04.
For `CCc1ccccc1` [ethylbenzene] + CCCOC[n+]1ccn(Cc2ccccc2)c1.O=S(=O)([N-]S(=O)(=O)C(F)(F)F)C(F)(F)F, the activity coefficient by setting is: (323.15 K) 1.5 ± 0.1; (333.15 K) 1.33 ± 0.09; (343.15 K) 1.32 ± 0.09.
As to `c1ccncc1` [pyridine] + CCCOC[n+]1ccn(Cc2ccccc2)c1.O=S(=O)([N-]S(=O)(=O)C(F)(F)F)C(F)(F)F, the activity coefficient reads like this: (333.15 K) 0.28 ± 0.03; (343.15 K) 0.29 ± 0.03.
In the case of `CO` [methanol] + CCCCCCCCn1cc[n+](COCCC)c1C.N#C[N-]C#N, the activity coefficient is 0.32 ± 0.03 (323.15 K), 0.29 ± 0.03 (333.15 K) and 0.28 ± 0.03 (343.15 K).
In the case of `ClC(Cl)Cl` [trichloromethane] + CCCOC[n+]1ccn(Cc2ccccc2)c1.O=S(=O)([N-]S(=O)(=O)C(F)(F)F)C(F)(F)F, the activity coefficient by setting is: (323.15 K) 0.73 ± 0.05; (333.15 K) 0.65 ± 0.04; (343.15 K) 0.66 ± 0.05.
In the case of `CCCCCCCC` [octane] + CN(C)c1cc[n+](COCCCOC[n+]2ccc(N(C)C)cc2)cc1.O=S(=O)([N-]S(=O)(=O)C(F)(F)F)C(F)(F)F.O=S(=O)([N-]S(=O)(=O)C(F)(F)F)C(F)(F)F, the activity coefficient reads like this: (323.15 K) 37.9 ± 2.6; (333.15 K) 34.5 ± 2.4; (343.15 K) 30 ± 2.
Consider `CC#N` [acetonitrile] + Cn1cc[n+](COCCCOC[n+]2ccn(C)c2)c1.N#C[N-]C#N.N#C[N-]C#N, for which the activity coefficient (323.15 K) was 0.68 ± 0.05, the activity coefficient (333.15 K) worked out at 0.68 ± 0.05 and the activity coefficient (343.15 K) came out at 0.69 ± 0.05.
With `C#CCCCC` [1-hexyne] + CCCOC[n+]1ccn(Cc2ccccc2)c1.N#C[N-]C#N, the activity coefficient (323.15 K) came to 4.41 ± 0.3 and the activity coefficient (333.15 K) came to 4.29 ± 0.29.
